A short description of assay [1]: Cytotoxicity against human HeLa cells assessed as reduction in cell growth measured after 48 hrs by WST-8 assay. Type of assay: functional, cell-based. Background: Formazan colour is commonly taken as a measure of viable cells.
The nature of assay [2]: Binding affinity to porcine alpha/beta tubulin assessed as decrease in tryptophan fluorescence measured after 30 mins by tryptophan fluorescence assay. Further details: species or system Sus scrofa.
Assay [3] in a line: Inhibition of alpha-[32P]-GTP binding to human gamma-tubulin preincubated for 15 mins followed by alpha-[32P]-GTP addition measured after 30 mins.
For assay [4], the species on record is Sus scrofa. In words: Inhibition of [3H]colchicine binding to microtubule associated proteins free porcine brain alpha/beta-tubulin assessed as remaining radiolabeled binding at 100 uM measured after 5 mins by centrifugal gel filtration method relative to control. (In general: In gel filtration, larger molecules generally elute earlier.)
The species named for assay [5] is Sus scrofa. The assay can be described thus: Inhibition of [3H]vinblastine binding to microtubule associated proteins free porcine brain alpha/beta-tubulin assessed as remaining radiolabeled binding at 100 uM measured after 5 mins by centrifugal gel filtration method relative to control.
The subject of assay [6] is HeLa. In words: Inhibition of bipolar spindle formation in human HeLa cells at 1 uM measured after 6 hrs by DAPI staining-based fluorescence microscopic analysis. It counts as functional, cell-based.
The species entered for assay [7] is Sus scrofa. In words: Inhibition of microtubule associated proteins free porcine brain alpha/beta-tubulin polymerization at 3 uM measured after 10 mins by thermostatic spectrophotometric method.
A short description of assay [8]: Inhibition of microtubule associated proteins free porcine brain alpha/beta-tubulin polymerization measured after 10 mins by thermostatic spectrophotometric method. Further details: species or system Sus scrofa.
For assay [9], the system named is HeLa. In words: Inhibition of bipolar spindle formation in human HeLa cells at 100 and 300 nM measured after 6 hrs by DAPI staining-based fluorescence microscopic analysis. It counts as functional, cell-based.
Assay [10] concerns HeLa. In words: Mitotic arrest in human HeLa cells at 100 nM measured after 18 hrs by propidium iodide-staining based flow cytometry. It counts as functional, cell-based. (In general: A flow cytometer gives signals particle by particle.)
For a further assay, the species on record is Homo sapiens. The assay can be described thus: Inhibition of alpha-[32P]-GTP binding to human gamma-tubulin at 60 uM preincubated for 15 mins followed by alpha-[32P]-GTP addition measured after 30 mins relative to control.

Values joined by “and” are separate entries in the source; they are usually repeats but may differ in a detail not shown here. Identical values can stand only once. Active and inactive are the calls of the source. The rule behind the calls is not given here.

As to `COc1cc2c(c(OC)c1OC)-c1ccc(OC)c(=O)cc1[C@@H](NC(C)=O)CC2` [COLCHICINE], the IC50 in [1] is 20 nM. For the same compound, the equilibrium dissociation constant (Kd) in assay [2] was 26.6 µM.
Regarding `C#CCOc1cc2occ(-c3cc(OC)c4c(c3OC)OCO4)c(=O)c2cc1OC`, the IC50 in assay [3] was 450 nM and 170 nM.
For the compound `COc1cc2occ(-c3cc(OC)c4c(c3OC)OCO4)c(=O)c2cc1OC` [GLAZIOVIANIN A], the IC50 in [1] was determined as 610 nM. The Activity was 67.8% in the assay listed under Sus scrofa [4] and 112% in the assay filed under Sus scrofa [5]. Besides, in assay [2], the Kd worked out at 80 µM. The inhibition result in the assay with HeLa [6] was “Active”.
Consider `COc1cc2occ(-c3cc(OC)c4c(c3OC)OCO4)c(=O)c2cc1OCc1ccccc1`, for which the values for the IC50 in assay [1] and in assay [8] were 70 nM and 2100 nM, respectively. Besides, the inhibition entry in the assay listed under Sus scrofa [7] and in the assay with HeLa [9] was “Active” each time. The Activity in the assay listed under Sus scrofa [4] was found to be 20.3%; in the assay filed under Sus scrofa [5], 118%. The Kd in assay [2] worked out at 1 µM. The result in the assay with HeLa [10] was Active. Besides, the inhibition in the assay listed under Homo sapiens came to 89.6%.
Take `COc1cc2c(=O)c(-c3cc(OC)c4c(c3OC)OCO4)coc2cc1OCc1ccccc1`: the IC50 in assay [1] amounted to 12800 nM. In addition, the inhibition in the assay listed under Homo sapiens came to 93.3%.
As for `CC[C@]1(O)C[C@@H]2CN(CCc3c([nH]c4ccccc34)[C@@](C(=O)OC)(c3cc4c(cc3OC)N(C)[C@H]3[C@@](O)(C(=O)OC)[C@H](OC(C)=O)[C@]5(CC)C=CCN6CC[C@]43[C@@H]65)C2)C1`, the figures for the Activity in the assay filed under Sus scrofa [4] and in the assay listed under Sus scrofa [5] were 127% and 5.3%, respectively.

Broadly, the IC50 is the point on the concentration scale where inhibition reaches its midpoint. The term Kd denotes a measure of binding affinity in units of concentration. What is called inhibition is the drop in the measured response relative to a control, in per cent.
